Reference: PMC5391016 (PLoS ONE, 2017)

Tested on: T1, Epac1-camps-PDE4A1
T1 construct: gene RAPGEF3
Conditions: read-out: pEC50 5.56 ± 0.08 (converted); 10 mM Tris, 10 mM MgCl2; apparent affinity; PDE catalytically impaired

- EC50: 2700 nM
Compound: Nc1ncnc2c1ncn2[C@@H]1O[C@@H]2COP(=O)(O)O[C@H]2[C@H]1O [cAMP]
